For 14 compounds, IC50 results are on record in patent US20080176838A1, “Dpp-IV Inhibitors” (SANTHERA PHARMACEUTICALS (DEUTSCHLAND) AG, priority 2004, published 2008).

T1 sequence (P27487 31-766): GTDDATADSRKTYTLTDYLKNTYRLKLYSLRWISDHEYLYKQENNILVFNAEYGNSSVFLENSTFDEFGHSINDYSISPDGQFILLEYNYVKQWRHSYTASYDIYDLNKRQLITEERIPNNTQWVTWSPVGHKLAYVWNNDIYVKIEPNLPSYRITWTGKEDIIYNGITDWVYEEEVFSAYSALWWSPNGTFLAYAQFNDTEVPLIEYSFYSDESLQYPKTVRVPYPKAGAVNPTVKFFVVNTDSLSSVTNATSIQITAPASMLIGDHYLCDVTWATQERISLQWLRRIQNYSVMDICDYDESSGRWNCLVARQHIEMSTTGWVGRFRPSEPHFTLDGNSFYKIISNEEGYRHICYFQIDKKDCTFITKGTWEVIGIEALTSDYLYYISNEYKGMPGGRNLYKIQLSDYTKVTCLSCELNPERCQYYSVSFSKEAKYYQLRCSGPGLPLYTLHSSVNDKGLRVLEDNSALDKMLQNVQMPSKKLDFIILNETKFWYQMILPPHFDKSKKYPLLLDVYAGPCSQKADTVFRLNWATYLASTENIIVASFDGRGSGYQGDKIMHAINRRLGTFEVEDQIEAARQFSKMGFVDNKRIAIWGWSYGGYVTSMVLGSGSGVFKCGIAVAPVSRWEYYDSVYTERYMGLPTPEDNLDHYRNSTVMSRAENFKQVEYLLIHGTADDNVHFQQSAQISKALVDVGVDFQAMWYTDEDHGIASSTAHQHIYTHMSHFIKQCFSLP

This test addresses T1, DPP-IV (Homo sapiens, UniProt P27487).
T1 construct: Soluble human DPP-IV lacking the transmembrane anchor (Gly31-Pro766); Pre-Pro-alpha-mating factor leader (secretion fusion) (N, cleaved yes); made in house
The test is described as follows: Continuous fluorimetric assay of inhibition of DPP-IV peptidase activity (cleavage of Gly-Pro-AMC). As to conditions: substrate Gly-Pro-AMC 16 μM, pH 7.4, 25° C., 1% DMSO. In kind it is biochemical. The procedure: Inhibition of DPP-IV peptidase activity was monitored with a continuous fluorimetric assay. This assay is based on the cleavage of the substrate Gly-Pro-AMC (Bachem) by DPP-IV, releasing free AMC. The assay is carried out in 96-well microtiterplates. In a total volume of 100 μL, compounds are preincubated with […] DPP-IV employing a buffer containing 10 mM Hepes, 150 mM NaCl, 0.005% Tween 20 (pH 7.4). […] The final concentration of DMSO is 1%. The inhibitory potential of the compounds were determined.
Soluble human DPP-IV lacking the transmembrane anchor (Gly31-Pro766) was expressed in a recombinant YEAST-strain as Pre-Pro-alpha-mating fusion.
As usually defined, the IC50 is the concentration that gives 50% inhibition. Take `N[C@@H](CCN1CCC[C@H]1CNS(=O)(=O)c1ccccc1)Cc1ccccc1F` [Example 25]: the IC50 is less than 100 nM.

On to `N[C@@H](CCN1Cc2ccccc2C[C@H]1C(=O)NC1CC1)Cc1ccccc1F` [Example 26], for which the IC50 fell in the range of 101 to 1000 nM. Next, `N[C@@H](CCN1CCC[C@H]1CNC(=O)C1CC1)Cc1ccccc1F` [Example 27, Cyclopropanecarboxylic acid {1-[(3R)-amino-4-(2-fluoro-phenyl)-butyl]-pyrrolidin-(2S)-ylmethyl}-amide]: less than 100 nM. Take `N[C@@H](CCN1Cc2ccccc2C[C@H]1CNC(=O)C1CC1)Cc1ccccc1F` [Example 28]: the IC50 was 101 to 1000 nM. `N[C@@H](CCN1CCC[C@H]1CNS(=O)(=O)C1CC1)Cc1ccccc1F` [Example 29] returned an IC50 of less than 100 nM. Consider `CS(=O)(=O)NC[C@@H]1CCCN1CC[C@H](N)Cc1ccccc1F` [Example 30], for which the IC50 is less than 100 nM. In turn, `N#Cc1cccc(S(=O)(=O)NC[C@@H]2CCCN2CC[C@H](N)Cc2ccccc2F)c1` [Example 31] gave an IC50 of less than 100 nM. As to `N[C@@H](CCN1CCC[C@H]1CNS(=O)(=O)CC(F)(F)F)Cc1ccccc1F` [Example 33], the IC50 is less than 100 nM. For `N[C@@H](CCN1CCOCC1CNS(=O)(=O)C1CC1)Cc1ccccc1F` (some centres unmarked) [Example 35], the IC50 lay within 101 to 1000 nM. Next, `N[C@@H](CCN1CCC[C@H]1COCc1ccccc1)Cc1ccccc1F` [Example 44, (1R)-3-[(2S)-2-Benzyloxymethyl-pyrrolidin-1-yl]-1-(2-fluoro-benzyl)-propylamine]: 101 to 1000 nM; `N[C@@H](CCN1CCC[C@H]1COc1cccc(F)c1)Cc1cccc(Cl)c1` [Example 45, (1R)-(3-Chloro-benzyl)-3-[(2S)-(3-fluoro-phenoxymethyl)-pyrrolidin-1-yl]-propylamine]: less than 100 nM. Next, `N[C@@H](CCN1CCC[C@H]1COc1cccc(F)c1)Cc1ccccc1F` [Example 46]: less than 100 nM; `N[C@@H](CCN1Cc2ccccc2C[C@H]1COc1cccc(F)c1)Cc1ccccc1F` [Example 47]: 101 to 1000 nM. On to `COC[C@@H]1CCCN1CC[C@H](N)Cc1ccccc1F` [Example 48], for which the concentration for half-maximal inhibition (IC50) was in the range of 101 to 1000 nM.
